Data reported in patent publication US8263044B2, “Stilbene like compounds as novel HDAC inhibitors” (Orchid Research Laboratories Limited, priority 2005, dated 2012).
Like-named read-outs stand apart in the source and are kept apart here.

Tests used:
[1] = test system: MDAMB231/U251; assay: cells; details: 48 h, read-out: MDAMB231/U251 LC50
[2] = test system: NCIH 460 cells; assay: cells; details: for GI50: read-out: NCIH460 GI50; for CC50: read-out: NCIH460 LC50
Protocol: (§1) Experimental drugs are screened for anti-cancer activity in three cell lines for their GI50, TGI and LC50 values (using five concentrations for each compound). The cell lines are maintained in DMEM containing 10% fetal bovine serum. 96 well micro titer plates are inoculated with cells in 100 μL for 24 h at 37° C., 5% CO2, 95% air and 100% relative humidity. 5000 HCT 116 cells/well, 5000 NCIH 460 cells/well and 5000 U251 cells/well are plated. A separate plate with these cell lines is also inoculated to determine cell viability before the addition of the compounds (T0) (See Table I).
(§2) Following 24-hour incubation, experimental drugs are added to the 96 well plates. Each plate contains one of the above cell lines and the following in triplicate: five different concentrations (0.01, 0.1, 1, 10 and 100 μM) of four different compounds, appropriate dilutions of a cytotoxic standard and control (untreated) wells. Compounds are dissolved in DMSO to make 20 mM stock solutions on the day of drug addition and frozen at −20° C. Serial dilutions of these 20 mM stock solutions are made in complete growth medium such that 100 μL of these drug solutions in medium, of final concentrations equaling 0.01, 0.1, 1, 10 and 100 μM can be added to the cells in triplicate. […] (See Table I).
(§3) For T0 measurement, 24 hours after seeding the cells, 10 μL of 3-(4,5-Dimethyl-2-thiazolyl)-2,5-diphenyl-2H-tetrazolium (MTT) solution per well is added and incubation carried out for 3 hours at 37° C., 5% CO2, 95% air and 100% relative humidity, protected from light. Cells incubated with compounds for 48 hours are treated similarly except with the addition of 20 μL MTT solution per well and a subsequent incubation under the same conditions. After 3 hours of MTT incubation, well contents are aspirated carefully followed by addition of 150 μL DMSO per well. Plates are agitated to ensure solution of the formazan crystals in DMSO and absorbance read at 570 nm. (See Table I).
(§4) Percent growth is calculated for each compound's concentration relative to the control and zero measurement wells (T0; viability right before compound addition).
(§5) If a test well's O.D. value is lower than the T0 measurement for that cell line, then, % Growth=(test−zero)/zero×100

[3] = test system: MDAMB231/U251; assay: cells; details: 48 h; for GI50: read-out: MDAMB231/U251 GI50
Protocol: as §1, §2, §3, §4, §5

[4] = test system: HCT 116 cells; assay: cells; details: for GI50: read-out: HCT116 GI50; for CC50: read-out: HCT116 LC50
Protocol: as §1, §2, §3, §4, §5

[5] = test system: NCIH460, HCT116, MDAMB231/U251; assay: Anti-cancer screen, mean GI50 over the cell lines; type: cell-based; details: mean over the three cell lines; no unit in table
Protocol: as §1, §2, §3
Percent growth is calculated for each compound's concentration relative to the control and zero measurement wells (T0; viability right before compound addition). […]

[6] = test system: HDAC activity (Mouse Liver Extract); assay: Histone Deacetylase (HDAC) Inhibition Assay using Boc-Lys (Ac)-AMC Substrate; type: biochemical; details: mouse liver enzyme; for HDAC Inhibition 1 μM: inhibitor at 1 μM; for HDAC Inhibition 1 μM / HDAC Inhibition 10 μM: in % (unit assumed); for HDAC Inhibition 10 μM: inhibitor at 10 μM
Protocol: Histone Deacetylase (HDAC) Inhibition Assay using Boc-Lys (Ac)-AMC Substrate: Inhibition of HDAC has been implicated to modulate transcription and to induce apoptosis or differentiation in cancer cells. The fluorometric assay provides a fast and fluorescence based method that eliminates radioactivity, extractions or chromatography, as used in traditional assays. The assay based on two steps. First, the HDAC fluorometric substrate, which comprises an acetylated lysine side chain, is incubated with a sample containing HDAC activity (Mouse Liver Extract). Deacetylation of the substrate sensitizes the substrate, in the second step; treatment with the Trypsin stop solution produces a fluorophore that can be easily analyzed using fluorescence plate reader.
Assay was done in 96 well black microplate and total volume of the assay is 100 ul. Mouse liver enzyme is diluted 1:6 with HDAC buffer. Enzyme cocktail made of 10 ul of diluted enzyme and 30 ul of HDAC buffer. 40 ul of enzyme cocktail dispensed into each well. 10 ul of different concentrations of inhibitor added in to each well, except enzyme control well. Preincubated the plate at 30° C. for 5 minutes. The HDAC reaction is started by adding 50 ul of HDAC substrate (Boc-Lys (Ac)-AMC Substrate) solution. Incubated the plate at 30° C. for 30 minutes. Adding 100 ul of Trypsin stop solution stops the reaction. The plate is incubated again at 30° C. for 20-30 minutes. The release of AMC is monitored by measuring the fluorescence at excitation wavelength of 365 or 360 nm and emission wavelength of 440 or 460 nm. Buffer and substrate alone kept for blank subtraction. (Dennis Wegener et al, Anal. Biochem, 321, 2003, 202-208).

[7] = NCIH460, MTT, 48 h, tested at 0.01-100 μM, no unit in table
[8] = MDAMB231/U251, MTT, tested at 0.01-100 μM, no unit in table
[9] = HCT116, MTT, 48 h, tested at 0.01-100 μM, no unit in table

SMILES | CC50 [1] [µM] | GI50 ([2]; Homo sapiens, NCI-H460, 48 h) [µM] | CC50 ([2]; Homo sapiens, NCI-H460, 48 h) [µM] | GI50 [3] [µM] | GI50 ([4]; Homo sapiens, HCT-116, 48 h) [µM] | CC50 ([4]; Homo sapiens, HCT-116, 48 h) [µM] | GI50 [5] [µM] | HDAC Inhibition 1 μM [6] | HDAC Inhibition 10 μM [6] | IC50 [6] [µM] | NCIH460 TGI [2, 7] | GI50 [2, 7] [µM] | CC50 [2, 7] [µM] | MDAMB231/U251 TGI [3, 8] | GI50 [3, 8] [µM] | CC50 ([3]; read-out: MDAMB231/U251 LC50, MDAMB231/U251, MTT, tested at 0.01-100 μM, no unit in table) [µM] | HCT116 TGI [4, 9] | GI50 [4, 9] [µM] | CC50 [4, 9] [µM]
CON(C)C(=O)CCCCCNC(=O)/C(=C\c1ccc(SC)cc1)c1ccc(F)cc1 [Example 18, (2Z)-3-(4-Thiomethylphenyl)-2-(4-fluorophenyl)-N-[6-(N,O dimethylamine)-6-oxohexyl]acrylamide] | > 100 | 0.5 | > 100 | 0.8 | 55 | > 100 | 18.8 | 2.26 | 0.89 | – | – | – | – | – | – | – | – | – | –
CC(=O)N(O)C(=O)CCCCCNC(=O)/C(=C\c1ccc(Cl)o1)c1ccc(F)cc1 [Example 53, N-Acetyl-6-{[(2Z)-3-(5-chloro-2-furyl)-2-(4-fluorophenyl)-acrylamide]}-N-hydroxyhexanamide] | 70 | 13 | 75 | 5 | 5 | 65 | 7.7 | 69.80 | 95.25 | 0.06 | – | – | – | – | – | – | – | – | –
O=C(CCCCCNC(=O)/C(=C\c1ccncc1)c1ccc(F)cc1)NO [Example 14, (2Z)-3-(4-Pyridine)-2-(4-fluorophenyl)-N-[6-(hydroxyamino)-6-oxohexyl]acrylamide] | > 100 | > 100 | > 100 | > 100 | > 100 | > 100 | > 100 | 21.1 | 35.4 | – | – | – | – | – | – | – | – | – | –
O=C(CCCCCNC(=O)/C(=C\c1ccc(F)c(C(F)(F)F)c1)c1ccc([N+](=O)[O-])cc1)NO [Example 24, (2Z)-3-(4-Fluoro-3-trifluoromethylphenyl)-2-(4-nitrophenyl)-N-[6-(hydroxyamino)-6-oxohexyl]acrylamide] | 75 | 16 | 82 | 0.3 | 5 | > 100 | 7.21 | 46.1 | 99.5 | – | – | – | – | – | – | – | – | – | –
O=C(CCCCCNC(=O)/C(=C\c1ccncc1)c1ccc(F)cc1)Nc1ccc(O)cc1[N+](=O)[O-] [Example 15] | > 100 | > 100 | > 100 | > 100 | > 100 | > 100 | > 100 | 1.7 | 4 | – | – | – | – | – | – | – | – | – | –
COc1ccc(/C(=C/c2cccc(Cl)c2)C(=O)NCCCCCC(=O)NO)cc1 [Example 28, (2Z)-3-(3-Chlorophenyl)-2-(4-methoxyphenyl)-N-[6-(hydroxyamino)-6-oxohexyl]acrylamide] | 100 | 9 | 82 | 4 | 5 | 45 | 6 | 70.82 | 90.20 | 0.44 | – | – | – | – | – | – | – | – | –
O=C(CCCCCNC(=O)/C(=C\c1ccccc1[N+](=O)[O-])c1ccc(Cl)cc1)NO [Example 30, (2Z)-3-(2-Nitrophenyl)-2-(4-chlorophenyl)-N-[6-(hydroxyamino)-6-oxohexyl]acrylamide] | > 100 | 30 | > 100 | 3 | 6 | > 100 | 13 | 52.95 | 84.69 | – | – | – | – | – | – | – | – | – | –
COc1cc(/C=C(\C(=O)NCCCCCC(=O)NO)c2ccc([N+](=O)[O-])cc2)cc(OC)c1 [Example 9, (2Z)-3-(3,5-Dimethoxyphenyl)-2-(4-nitrophenyl)-N-[6-(hydroxyamino)-6-oxohexyl]acrylamide] | 90 | 45 | 100 | 28 | 20 | 95 | 31 | 65.5 | 98.28 | 0.7 | – | – | – | – | – | – | – | – | –
CSc1ccc(/C=C(\C(=O)NCCCCCC(=O)NOCc2ccccc2)c2ccc(F)cc2)cc1 [Example 51, (2Z)-3-(4-Thiomethylphenyl)-2-(4-fluorophenyl)-N-[6-(O-benzyl hydroxyamino)-6-oxohexyl]acrylamide] | – | – | – | – | – | – | 16.5 | – | – | – | 80 | 30 | > 100 | 35 | 9.6 | 86 | 65 | 10 | 84
O=C(CCCCCNC(=O)/C(=C\c1cc(F)cc(F)c1F)c1ccc([N+](=O)[O-])cc1)NO [Example 27, (2Z)-3-(2,3,5-Trifluorophenyl)-2-(4-nitrophenyl)-N-[6-(hydroxyamino)-6-oxohexyl]acrylamide] | 82 | 30 | 96 | 7.5 | 7 | > 100 | 14.8 | – | – | – | – | – | – | – | – | – | – | – | –
Cc1cc(/C=C(\C(=O)NCCCCCC(=O)NO)c2ccc(F)cc2)ccc1F [Example 45, (2Z)-3-(4-Fluoro-3-methylphenyl)-2-(4-fluorophenyl)-N-[6-(hydroxyamino)-6-oxohexyl]acrylamide] | > 100 | 16 | 89 | 5 | 6.8 | 73 | 9.3 | – | – | – | – | – | – | – | – | – | – | – | –
COc1ccc(/C=C(\C(=O)NCCCCCC(=O)NO)c2ccccc2)cc1 [Example 29, (2Z)-3-(4-Methoxyphenyl)-2-(phenyl)-N-[6-(hydroxyamino)-6-oxohexyl]acrylamide] | 90 | 28 | 89 | 6 | 5 | 78 | 13 | – | – | – | – | – | – | – | – | – | – | – | –
O=C(CCCCCNC(=O)/C(=C\c1ccc(F)c(F)c1)c1ccc(F)cc1)Nc1nccs1 [Example 36] | > 100 | 2 | > 100 | 0.2 | > 100 | > 100 | 1.1 | – | – | – | – | – | – | – | – | – | – | – | –
